Data taken from ChEMBL document CHEMBL1255477, “In vitro properties of BAL30072, a novel siderophore sulfactam with activity against multiresistant gram-negative bacilli” (Antimicrob Agents Chemother, 2010).
Converted amounts (≈) assume the structure as drawn. The source made the active and inactive calls. The calls are words filed in the database; no cut-off is given here.

Tests used:
[1] = test system: Pseudomonas aeruginosa; experiment: Antimicrobial activity against Pseudomonas aeruginosa BA assessed as number of passages required for MIC to rise above 4 times original MIC; format: functional
[2] = test system: Klebsiella pneumoniae; experiment: Antimicrobial activity against Klebsiella pneumoniae YC harboring beta-lactamase KPC-2,TEM-1and SHV-2 by broth dilution method; format: functional
[3] = test system: Escherichia coli; experiment: Antimicrobial activity against Escherichia coli W3110 assessed as appearance of colony at 4 times MIC concentration; format: functional, organism-based
[4] = test system: Providencia rettgeri; experiment: Antimicrobial activity against Providencia rettgeri J96 harboring beta-lactamase IMP-1 by broth dilution method; format: functional
[5] = test system: Pseudomonas aeruginosa; experiment: Antimicrobial activity against Pseudomonas aeruginosa 527 assessed as number of passages required for MIC to rise above 4 times original MIC; format: functional
[6] = test system: Pseudomonas aeruginosa; experiment: Antimicrobial activity against Pseudomonas aeruginosa BA assessed as appearance of colony at 4 times MIC concentration; format: functional
[7] = test system: Stenotrophomonas maltophilia; experiment: Antimicrobial activity against Stenotrophomonas maltophilia B715 harboring beta-lactamase L1and L2 by broth dilution method; format: functional
[8] = test system: Pseudomonas aeruginosa; experiment: Antimicrobial activity against pfeA deficient Pseudomonas aeruginosa 134 by broth dilution method; format: functional
[9] = test system: Acinetobacter sp.; experiment: Antimicrobial activity against Acinetobacter sp. by broth dilution method; format: functional
[10] = test system: Escherichia coli; experiment: Antimicrobial activity against Escherichia coli nmcA harboring beta-lactamase NMCA by broth dilution method; format: functional
[11] = test system: Enterobacter cloacae; experiment: Antimicrobial activity against Enterobacter cloacae 908R harboring beta-lactamase AmpC by broth dilution method; format: functional
[12] = test system: Escherichia coli; experiment: Antimicrobial activity against Escherichia coli A harboring beta-lactamase CTX-M 15 by broth dilution method; format: functional
[13] = test system: Pseudomonas aeruginosa; experiment: Antimicrobial activity against oprD protein deficient Pseudomonas aeruginosa C2 by broth dilution method; format: functional
[14] = test system: Acinetobacter baumannii; experiment: Antimicrobial activity against Acinetobacter baumannii HPA74510 assessed as appearance of colony at 4 times MIC concentration; format: functional, organism-based
[15] = test system: Pseudomonas aeruginosa; experiment: Antimicrobial activity against fpvA, fpvB, fptA and pirA gene deficient Pseudomonas aeruginosa 860 by broth dilution method; format: functional
[16] = test system: Enterobacter cloacae; experiment: Microbicidal activity against Enterobacter cloacae S4741B selected after 4 times MIC compound exposure; format: functional
[17] = test system: Pseudomonas aeruginosa; experiment: Antimicrobial activity against Pseudomonas aeruginosa BA by broth dilution method; format: functional
[18] = test system: Pseudomonas aeruginosa; experiment: Antimicrobial activity against mexAB-oprM protein and mexZ deficient Pseudomonas aeruginosa PAO267 by broth dilution method; format: functional
[19] = test system: Klebsiella oxytoca; experiment: Antimicrobial activity against Klebsiella oxytoca 1028E harboring beta-lactamase K1 by broth dilution method; format: functional
[20] = test system: Stenotrophomonas maltophilia; experiment: Antimicrobial activity against Stenotrophomonas maltophilia by broth dilution method; format: functional
[21] = test system: Klebsiella pneumoniae; experiment: Antimicrobial activity against Klebsiella pneumoniae 26768WU harboring beta-lactamase SHV-5 by broth dilution method; format: functional
[22] = test system: Acinetobacter baumannii; experiment: Antimicrobial activity against Acinetobacter baumannii HPA 4737 harboring beta-lactamase OXA-26 by broth dilution method; format: functional
[23] = test system: Enterobacter cloacae; experiment: Antimicrobial activity against Enterobacter cloacae S9369 assessed as appearance of colony at 4 times MIC concentration; format: functional, organism-based
[24] = test system: Providencia rettgeri; experiment: Antimicrobial activity against Providencia rettgeri by broth dilution method; format: functional
[25] = test system: Providencia stuartii; experiment: Antimicrobial activity against Providencia stuartii by broth dilution method; format: functional
[26] = test system: Pseudomonas aeruginosa; experiment: Antimicrobial activity against mexAB-oprM protein and mexCD-oprJ deficient Pseudomonas aeruginosa PAO238 by broth dilution method; format: functional
[27] = test system: Serratia marcescens; experiment: Antimicrobial activity against Serratia marcescens 1T9 harboring beta-lactamase Class C by broth dilution method; format: functional
[28] = test system: Klebsiella pneumoniae; experiment: Antimicrobial activity against Klebsiella pneumoniae CRE harboring beta-lactamase KPC-2 by broth dilution method; format: functional
[29] = test system: Klebsiella pneumoniae; experiment: Antimicrobial activity against Klebsiella pneumoniae 1357E harboring beta-lactamase TEM-10 by broth dilution method; format: functional
[30] = test system: Pseudomonas aeruginosa; experiment: microbe, parasite or virus in culture; conditions: PAO1
Description: Antimicrobial activity against Pseudomonas aeruginosa PAO1 by broth dilution method

[31] = test system: Klebsiella aerogenes; experiment: Antimicrobial activity against Enterobacter aerogenes by broth dilution method; format: functional
[32] = test system: Pseudomonas aeruginosa; experiment: Antimicrobial activity against mexAB-oprM protein and mexCD-oprJ deficient Pseudomonas aeruginosa PAO253 overexpressing MexEF-OprN gene by broth dilution method; format: functional
[33] = test system: Acinetobacter baumannii; experiment: Antimicrobial activity against Acinetobacter baumannii HPA I-16 harboring beta-lactamase OXA-27 by broth dilution method; format: functional
[34] = test system: Proteus mirabilis; experiment: Antimicrobial activity against Proteus mirabilis by broth dilution method; format: functional
[35] = test system: Stenotrophomonas maltophilia; experiment: Antimicrobial activity against Stenotrophomonas maltophilia 1AC736 assessed as number of passages required for MIC to rise above 4 times original MIC; format: functional
[36] = test system: Pseudomonas aeruginosa; experiment: Antimicrobial activity against Pseudomonas aeruginosa by broth dilution method; format: functional
[37] = test system: Pseudomonas aeruginosa; experiment: Antimicrobial activity against Pseudomonas aeruginosa BA(C1-106) selected after 25 ug/ml of compound exposure by broth dilution method; format: functional
[38] = test system: Pseudomonas aeruginosa; experiment: Antimicrobial activity against Pseudomonas aeruginosa 1973E harboring beta-lactamase PSE-1 and class C enzymes by broth dilution method; format: functional
[39] = test system: Pseudomonas aeruginosa; experiment: Antimicrobial activity against Pseudomonas aeruginosa B4 by broth dilution method; format: functional
[40] = test system: Klebsiella pneumoniae; experiment: Antimicrobial activity against Klebsiella pneumoniae 1338665 assessed as number of passages required for MIC to rise above 4 times original MIC; format: functional
[41] = test system: Enterobacter cloacae; experiment: Antimicrobial activity against Enterobacter cloacae S9369 assessed as number of passages required for MIC to rise above 4 times original MIC; format: functional
[42] = test system: Escherichia coli; experiment: Antimicrobial activity against Escherichia coli HB101 harboring beta-lactamase TEM-5 by broth dilution method; format: functional
[43] = test system: Proteus penneri; experiment: Antimicrobial activity against Proteus penneri by broth dilution method; format: functional
[44] = test system: Enterobacter cloacae; experiment: Antimicrobial activity against Enterobacter cloacae S4741B assessed as number of passages required for MIC to rise above 4 times original MIC; format: functional
[45] = test system: Klebsiella oxytoca; experiment: Antimicrobial activity against Klebsiella oxytoca by broth dilution method; format: functional
[46] = test system: Pseudomonas aeruginosa; experiment: Antimicrobial activity against Pseudomonas aeruginosa HPA996 harboring beta-lactamase VIM-2 by broth dilution method; format: functional
[47] = test system: Pseudomonas aeruginosa; experiment: Antimicrobial activity against Pseudomonas aeruginosa 621 assessed as number of passages required for MIC to rise above 4 times original MIC; format: functional
[48] = test system: Escherichia coli; experiment: Antimicrobial activity against Escherichia coli by broth dilution method; format: functional
[49] = test system: Pseudomonas aeruginosa; experiment: Antimicrobial activity against Pseudomonas aeruginosa 1937E harboring beta-lactamase PSE-4 and class C enzymes by broth dilution method; format: functional
[50] = test system: Pseudomonas aeruginosa; experiment: Antimicrobial activity against fpvA deficient Pseudomonas aeruginosa (560546)9 M.P. by broth dilution method; format: functional
[51] = test system: Escherichia coli; experiment: Antimicrobial activity against Escherichia coli Libyien harboring beta-lactamase CMY-2 by broth dilution method; format: functional
[52] = test system: Escherichia coli; experiment: Antimicrobial activity against Escherichia coli K802N harboring beta-lactamase TEM-3 by broth dilution method; format: functional
[53] = test system: Acinetobacter junii; experiment: Antimicrobial activity against Acinetobacter junii 15218 assessed as appearance of colony at 4 times MIC concentration; format: functional

`C[C@@H](O)[C@H]1C(=O)N2C(C(=O)O)=C(S[C@@H]3CN[C@H](C(=O)N(C)C)C3)[C@H](C)[C@H]12` [MEROPENEM] was tested, and the Activity [1] was 3 passages, the MIC [2] was greater than 32 µg/mL and the Activity [3] was “Active”. For the same molecule, the MIC [4] was greater than 32 µg/mL, the Activity [5] was 3 passages and the Activity [6] was 1 frequency. The MIC [7] was greater than 32 µg/mL, the MIC [8] was 1 µg/mL (≈ 2.61 µM) and the MIC50 [9] was 1 µg/mL (≈ 2.61 µM). The MIC90 [9] was greater than 32 µg/mL, the MIC [10] was greater than 32 µg/mL and the MIC [11] was 0.125 µg/mL (≈ 0.326 µM). For the same molecule, the MIC [12] was 0.125 µg/mL (≈ 0.326 µM), the MIC [13] was 1 µg/mL (≈ 2.61 µM) and the Activity [14] was “inactive”. The MIC [15] was 1 µg/mL (≈ 2.61 µM), the MBC [16] was 0.25 µg/mL (≈ 0.652 µM) and the MIC [17] was 1 µg/mL (≈ 2.61 µM). For the same molecule, the MIC ([17]; Pseudomonas aeruginosa, BA, read-out: MIC) was 1 µg/mL (≈ 2.61 µM), the MIC [18] was 0.125 µg/mL (≈ 0.326 µM) and the MIC [19] was 0.125 µg/mL (≈ 0.326 µM). It also gave an MIC50 [20] of 8 µg/mL (≈ 20.9 µM), an MIC90 [20] greater than 32 µg/mL and an MIC [21] of no more than 0.06 µg/mL. For the same molecule, the MIC [22] was greater than 32 µg/mL, the Activity [23] was “Active” and the MIC50 [24] was 0.25 µg/mL (≈ 0.652 µM). For the same molecule, the MIC90 [24] was greater than 32 µg/mL, the MIC50 [25] was 0.25 µg/mL (≈ 0.652 µM) and the MIC90 [25] was greater than 32 µg/mL. It also gave an MIC [26] of 0.5 µg/mL (≈ 1.3 µM), an MIC [27] of 0.125 µg/mL (≈ 0.326 µM) and an MIC [28] greater than 32 µg/mL. It also gave an MIC [29] of no more than 0.06 µg/mL, an MIC [30] of 1 µg/mL (≈ 2.61 µM) and an MIC50 [31] of 0.25 µg/mL (≈ 0.652 µM). It also gave an MIC90 [31] of 4 µg/mL (≈ 10.4 µM), an MIC [32] of 0.5 µg/mL (≈ 1.3 µM) and an MIC [33] greater than 32 µg/mL. For the same molecule, the MIC50 [34] was 0.125 µg/mL (≈ 0.326 µM), the MIC90 [34] was 0.5 µg/mL (≈ 1.3 µM) and the Activity [35] was “inactive”. It also gave an MIC50 [36] of 4 µg/mL (≈ 10.4 µM), an MIC90 [36] greater than 32 µg/mL and an MIC [37] of 1 µg/mL (≈ 2.61 µM). The MIC [38] was 4 µg/mL (≈ 10.4 µM), the MIC [39] was no more than 0.06 µg/mL and the Activity [40] was “inactive”. The Activity [41] was 9 passages, the MIC [42] was no more than 0.06 µg/mL and the MIC50 [43] was 0.125 µg/mL (≈ 0.326 µM). For the same molecule, the MIC90 [43] was 0.5 µg/mL (≈ 1.3 µM), the Activity [44] was 7 passages and the MIC50 [45] was no more than 0.06 µg/mL. It also gave an MIC90 [45] of 1 µg/mL (≈ 2.61 µM), an MIC [46] of 32 µg/mL (≈ 83.4 µM) and an Activity [47] of 2 passages. It also gave an MIC50 [48] of no more than 0.06 µg/mL, an MIC90 [48] of 0.5 µg/mL (≈ 1.3 µM) and an MIC [49] of 1 µg/mL (≈ 2.61 µM). It also gave an MIC [50] of 2 µg/mL (≈ 5.22 µM), an MIC [51] of 0.125 µg/mL (≈ 0.326 µM) and an MIC [52] of 16 µg/mL (≈ 41.7 µM). For the same molecule, the Activity [53] was “Active”.
